Type in all cases: cell-based, human
One experiment concerns HL-60. Nature of the experiment: Cytotoxicity test (ViaLight Plus cell proliferation) on HL-60. The conditions noted are these: 72 hours' incubation, cell viability vs 0.5% DMSO control; for IC50: Homo sapiens, read-out: EC50 HL-60. The source says: (§1) The effects of the compounds of the invention on the proliferation of cancer cells were studied on different human cancer cell lines of different tissue origin (MCF-7: breast cancer, MCF-7/adr adriamycin-resistant breast cancer, HL-60: acute promyelocytic leukaemia, HL-60/R10: doxorubicin-resistant acute promyelocytic leukaemia, HT29: colon adenocarcinoma, Mia Paca2: pancreatic tumour, Panc-1: pancreatic exocrine tumour, SK-OV-3: cisplatin- and adriamycin resistant ovarian cancer). The cancer cells used for this study were incubated at 37° C. in the presence of one of the compounds of the invention added to the culture medium at different concentrations.
(§2) The cancer cell lines were obtained from ATCC (American Type Culture Collection) for MCF-7, from Hôpital de la Pitié Salpetrière for MCF-7/adr and from Oncodesign (Dijon, France) for HL-60, HL-60/R10, HT29, MiaPaCa2, Panc-1 and SK-OV-3. They were cultured in RPMI 1640 medium containing 2 mM L-Glutamine supplemented with 10% foetal calf serum (Lonza; Verviers, Belgium). All the cell lines were held in culture at 37° C. in a humid atmosphere containing 5% CO2. Cell proliferation was assessed using the ViaLight® Plus Assay Kit (Lonza; Verviers, Belgium) following the manufacturer's instructions. The cells were seeded in 96-well culture plates compatible with luminescence read-off (white plates with transparent bottom) in a proportion of 5 000 to 10 000 cells per well in 100 μl of culture medium. After a pre-incubation time of 24 hours at 37° C., the compounds of the invention dissolved in dimethylsulfoxide (DMSO) were individually added to each well in a proportion of 0.5 μl per well. After 72 hours' incubation at 37° C. in a humid atmosphere containing 5% CO2, 50 μl of lysis buffer were added to each well and 15 minutes later 100 μl of ATP measuring agent were added. The plates were read under a luminometer to evaluate cell viability. The data obtained was processed by computer to obtain the EC50 value i.e. the concentration value of each of the compounds which induces 50% cell viability compared with a control value (0.5% DMSO alone).

The subject of a further experiment is MCF-7. Description: Cytotoxicity test (ViaLight Plus cell proliferation) on MCF-7. The note with it: 72 hours' incubation, cell viability vs 0.5% DMSO control; for IC50: Homo sapiens, MCF7, 72 h, read-out: EC50 MCF-7.
From the text: as §1, §2

The test system of a further experiment is HL-60/R10. Nature of the experiment: Cytotoxicity test (ViaLight Plus cell proliferation) on HL-60/R10. The note with it: doxorubicin-resistant line, 72 hours' incubation, cell viability vs 0.5% DMSO control, read-out: EC50 HL60/R10.
From the text: as §1, §2

The next experiment deals with MCF-7/adr. Nature of the experiment: Cytotoxicity test (ViaLight Plus cell proliferation) on MCF-7/adr. The conditions noted are these: adriamycin-resistant line, 72 hours' incubation, cell viability vs 0.5% DMSO control.
From the text: as §1, §2

Where two headings read alike, the source gives them in different places.

With `CC(C)[C@H]1CN(C(=O)C(c2ccc(F)cc2)N(C(=O)CCl)c2ccc(Oc3ccccc3)cc2)CCN1` (single isomer, unassigned) [I-3 dia1], the EC50 stood at 1310 nM in the experiment with HL-60, 927 nM with MCF-7, 15 nM in the experiment on HL-60/R10 and 55 nM with MCF-7/adr.

On to `CC(C)[C@@H]1CN(C(=O)C(c2ccc(F)cc2)N(C(=O)CCl)c2ccc(Oc3ccccc3)cc2)CCN1` (single isomer, unassigned) [I-4 dia1], for which the EC50 turned out to be 648 nM in the experiment with HL-60, 315 nM in the experiment with MCF-7, 4 nM in the experiment on HL-60/R10 and 13 nM in the experiment on MCF-7/adr.

On to `CC(C)[C@@H]1CN(C(=O)C(c2ccc(F)cc2)N(C(=O)CCl)c2ccc(Oc3ccccc3)cc2)CCN1` (single isomer, unassigned) [I-4 dia2], for which the EC50 turned out to be 1320 nM with HL-60, 863 nM in the experiment with MCF-7, 62 nM in the experiment on HL-60/R10 and 166 nM in the experiment on MCF-7/adr.

For `Cc1cc(Oc2ccccc2)ccc1N(C(=O)CCl)C(C(=O)N1CCN[C@@H](C(C)C)C1)c1ccc(F)cc1` (single isomer, unassigned) [I-7 dia1], the IC50 came out at 2500 nM in the experiment on HL-60 (HL-60, 72 h) and 2500 nM in the experiment with MCF-7. For the same molecule, the EC50 stood at 604 nM in the experiment on HL-60/R10 and 618 nM in the experiment with MCF-7/adr.

With `Cc1cc(Oc2ccccc2)ccc1N(C(=O)CCl)C(C(=O)N1CCN[C@H](C(C)C)C1)c1ccc(F)cc1` (single isomer, unassigned) [I-8 dia1], the IC50 in the experiment with HL-60 (HL-60, 72 h) is 2030 nM; in the experiment on MCF-7 it was 1740 nM. Also, the EC50 with HL-60/R10 came to 54 nM; in the experiment on MCF-7/adr, 148 nM.

Regarding `Cc1cc(Oc2ccccc2)ccc1N(C(=O)CCl)C(C(=O)N1CCN[C@H](C(C)C)C1)c1ccc(F)cc1` (single isomer, unassigned) [I-8 dia2], the EC50 in the experiment with HL-60 came to 1740 nM; in the experiment with MCF-7, 2410 nM; in the experiment on HL-60/R10 it was 312 nM; in the experiment with MCF-7/adr, 477 nM.

Take `CC[C@@H]1CN(C(=O)C(c2ccc(F)cc2)N(C(=O)CCl)c2ccc(Oc3ccccc3)cc2C)CCN1C(=O)OC(C)(C)C` (single isomer, unassigned; dia1) [I-16 dia1]: the EC50 in the experiment with HL-60 was found to be 1480 nM; with HL-60/R10 it was 450 nM; with MCF-7/adr, 527 nM.

On to `CC[C@H]1CN(C(=O)C(c2ccc(F)cc2)N(C(=O)CCl)c2ccc(Oc3ccccc3)cc2C)CCN1` (single isomer, unassigned; dia1) [I-17 dia1], for which the EC50 with HL-60 is 2310 nM; in the experiment on HL-60/R10, 353 nM; in the experiment with MCF-7/adr it was 898 nM.

For `CC[C@@H]1CN(C(=O)C(c2ccc(F)cc2)N(C(=O)CCl)c2ccc(Oc3ccccc3)cc2C)CCN1` (single isomer, unassigned; dia1) [I-18 dia1], the EC50 in the experiment with HL-60 came to 1600 nM; in the experiment on HL-60/R10, 140 nM; with MCF-7/adr, 485 nM.

As to `CC[C@H]1CN(C(=O)C(c2ccc(F)cc2)N(C(=O)CCl)c2ccc(Oc3ccccc3)cc2)CCN1C(=O)OC(C)(C)C` (single isomer, unassigned; dia1) [I-19 dia1], the values for the EC50 in the experiment with HL-60, in the experiment with HL-60/R10 and in the experiment with MCF-7/adr were 516 nM, 97 nM and 128 nM, respectively.

In the case of `CC[C@@H]1CN(C(=O)C(c2ccc(F)cc2)N(C(=O)CCl)c2ccc(Oc3ccccc3)cc2)CCN1C(=O)OC(C)(C)C` (single isomer, unassigned; dia1) [I-20 dia1], the EC50 amounted to 196 nM in the experiment on HL-60, 1570 nM with MCF-7, 80 nM in the experiment on HL-60/R10 and 73 nM in the experiment on MCF-7/adr.

With `C[C@H]1CN(C(=O)C(c2ccc(F)cc2)N(C(=O)CCl)c2ccc(Oc3ccccc3)cc2)CCN1` (single isomer, unassigned; dia1) [I-21 dia1], the EC50 in the experiment on HL-60 stood at 2450 nM; in the experiment on MCF-7, 1950 nM; in the experiment on HL-60/R10, 13 nM; in the experiment on MCF-7/adr, 93 nM.

As to `C[C@@H]1CN(C(=O)C(c2ccc(F)cc2)N(C(=O)CCl)c2ccc(Oc3ccccc3)cc2)CCN1` (single isomer, unassigned; dia1) [I-22 dia1], the EC50 with HL-60 turned out to be 2000 nM; in the experiment with MCF-7, 569 nM; in the experiment on HL-60/R10, 17 nM; in the experiment with MCF-7/adr, 131 nM.

With `Cc1cc(OC(C)C)ccc1N(C(=O)CCl)C(C(=O)N1CCN[C@@H](C(C)C)C1)c1ccc(F)cc1` (single isomer, unassigned; dia1) [I-26 dia1], the EC50 stood at 2450 nM in the experiment with HL-60, 1950 nM with MCF-7, 13 nM with HL-60/R10 and 93 nM in the experiment with MCF-7/adr.

On to `Cc1cc(Oc2ccccc2)ccc1N(C(=O)CCl)C(C(=O)N1CCN(C(=O)OC(C)(C)C)[C@H](C)C1)c1cccs1` (single isomer, unassigned; dia1) [I-40 dia1], for which the figures for the EC50 in the experiment with HL-60, in the experiment on HL-60/R10 and in the experiment on MCF-7/adr were 2130 nM, 248 nM and 371 nM, respectively.

As to `Cc1cc(Oc2ccccc2)ccc1N(C(=O)CCl)C(C(=O)N1CCN[C@@H](C(C)C)C1)c1cccs1` (single isomer, unassigned; dia1) [I-46 dia1], the EC50 with HL-60/R10 amounted to 318 nM; with MCF-7/adr, 544 nM.

For `CC[C@@H]1CN(C(=O)C(c2ccc(F)cc2)N(C(=O)CCl)c2ccc(Oc3ccccc3)cc2C)CCN1C(=O)OC(C)(C)C` (single isomer, unassigned; dia2) [I-16 dia2], the figures for the EC50 with HL-60, with HL-60/R10 and with MCF-7/adr were 1910 nM, 317 nM and 443 nM, respectively.

In the case of `CC[C@H]1CN(C(=O)C(c2ccc(F)cc2)N(C(=O)CCl)c2ccc(Oc3ccccc3)cc2)CCN1C(=O)OC(C)(C)C` (single isomer, unassigned; dia2) [I-19 dia2], the EC50 in the experiment on HL-60 worked out at 453 nM; in the experiment with HL-60/R10 it was 24 nM; with MCF-7/adr, 35 nM.

Turning to `CC[C@@H]1CN(C(=O)C(c2ccc(F)cc2)N(C(=O)CCl)c2ccc(Oc3ccccc3)cc2)CCN1C(=O)OC(C)(C)C` (single isomer, unassigned; dia2) [I-20 dia2], the EC50 was found to be 1480 nM in the experiment on HL-60, 139 nM in the experiment on HL-60/R10 and 165 nM in the experiment with MCF-7/adr.

`Cc1cc(Oc2ccccc2)ccc1N(C(=O)CCl)C(C(=O)N1CCN(C(=O)OC(C)(C)C)[C@H](C)C1)c1cccs1` (single isomer, unassigned; dia2) [I-40 dia2]: the figures for the EC50 in the experiment on HL-60/R10 and with MCF-7/adr were 487 nM and 827 nM, respectively.

As for `Cc1cc(Oc2ccccc2)ccc1N(C(=O)CCl)C(C(=O)N1CCN2CCC[C@H]2C1)c1cccs1` (some centres unmarked) [Example I-33], the EC50 in the experiment on HL-60/R10 came to 157 nM; in the experiment with MCF-7/adr, 394 nM.

Turning to `C[C@@H]1CNCCN1C(=O)C(c1cccs1)N(C(=O)CCl)c1ccc(Oc2ccccc2)cc1` (some centres unmarked) [reference compound], the IC50 with HL-60 (HL-60) is 311 nM; in the experiment with HL-60/R10 (Homo sapiens, HL-60), 38 nM.

With “tert-butyl ester of 4-[2-[(2-chloro-acetyl)-(4-phenoxy-phenyl)-amino]-2-(4-fluoro-phenyl)-acetyl]-(S)-2-isopropyl-piperazine-1-carboxylic acid [I-1 dia1]”, the EC50 stood at 1800 nM with HL-60 and 338 nM with MCF-7/adr.

Consider “tert-butyl ester of 4-[-2-[(2-chloro-acetyl)-(4-phenoxy-phenyl)-amino]-2-(4-fluoro-phenyl)-acetyl]-(R)-2-isopropyl-piperazine-1-carboxylic acid [I-2 dia2]”, for which the EC50 in the experiment with HL-60 came out at 2060 nM; in the experiment with HL-60/R10, 472 nM; with MCF-7/adr, 645 nM.

The values are drawn from patent publication US9877962B2, “Piperazinyl derivatives for the treatment of cancer” (priority 2011, dated 2018).
